Experimental data taken from PubChem BioAssay AID588589 (The Scripps Research Institute Molecular Screening Center, 2011).
Active and inactive are the calls of the source. No rule for the calls is given here.

Test system: Fam108b (ABHD17B) [Mus musculus], recombinant soluble
Experiment: mouse Fam108b hydrolase inhibitors, soluble construct – biochemical, gel-based ABPP, soluble form, SAR follow-up (AID 588589)
Settings: fluorophosphonate probe, at 5 µM, active compounds read high

Compound: O=c1oc(-c2cccs2)nc2scc(-c3ccccc3)c12
- inhibition: 55% (inactive)

Compound: O=C1OC(=O)c2cc(-c3nc4ccccc4c(=O)o3)ccc21
- inhibition: 0% (inactive)

Compound: O=c1oc(-c2ccc(-c3ccccc3)cc2)nc2scc(-c3ccccc3)c12
- inhibition: 0% (inactive)

Compound: CCOc1cccc(-c2nc3ccc(OC(C)=O)cc3c(=O)o2)c1
- inhibition: 5% (inactive)

Compound: Cc1nsc2nc(-c3cc([N+](=O)[O-])ccc3Cl)oc(=O)c12
- inhibition: 15% (inactive)

Compound: O=c1oc(-c2ccccc2)nc2c1oc1ccc(Cl)cc12
- inhibition: 40% (inactive)

Compound: Cc1nsc2nc(-c3cc(Br)cnc3Cl)oc(=O)c12
- inhibition: 10% (inactive)

Compound: Cc1nsc2nc(-c3ccc(F)cc3Cl)oc(=O)c12
- inhibition: 25% (inactive)

Compound: O=c1oc(-c2ccc(F)cc2)nc2scc(-c3cccs3)c12
- inhibition: 0% (inactive)

Compound: COc1ccc(-c2csc3nc(-c4ccccc4Br)oc(=O)c23)cc1
- inhibition: 0% (inactive)

Compound: COc1ccc(-c2csc3nc(Cc4ccccc4)oc(=O)c23)cc1OC
- inhibition: 5% (inactive)

Compound: O=c1oc(COc2ccccc2Cl)nc2ccccc12
- inhibition: 10% (inactive)

Compound: Cc1nsc2nc(-c3ccccc3Cl)oc(=O)c12
- inhibition: 0% (inactive)

Compound: O=c1oc(-c2ccccn2)nc2ccccc12
- inhibition: 45% (inactive)

Compound: CCc1nsc2nc(-c3ccccc3Cl)oc(=O)c12
- inhibition: 20% (inactive)

Compound: Cc1nc2c(oc3ccccc32)c(=O)o1
- inhibition: 25% (inactive)

Compound: Cc1ccc(-c2csc3nc(-c4ccc(-c5ccccc5)cc4)oc(=O)c23)cc1
- inhibition: 0% (inactive)

Compound: O=c1oc(-c2ccco2)nc2c1cnn2-c1ccccc1
- inhibition: 50% (inactive)

Compound: O=c1oc(-c2ccc(Br)cc2)nc2c1cnn2-c1ccccc1
- inhibition: 0% (inactive)

Compound: Cc1nsc2nc(-c3ccc([N+](=O)[O-])cc3Cl)oc(=O)c12
- inhibition: 10% (inactive)

Compound: CCCOc1cccc(-c2nc3cc(OC)c(OC)cc3c(=O)o2)c1
- inhibition: 10% (inactive)

Compound: CSc1ccc(Cl)c(-c2nc3snc(C)c3c(=O)o2)c1
- inhibition: 10% (inactive)

Compound: Cc1nsc2nc(-c3cc4ccccc4nc3Cl)oc(=O)c12
- inhibition: 40% (inactive)

Compound: CCOc1ccc(-c2csc3nc(-c4ccccc4C)oc(=O)c23)cc1
- inhibition: 5% (inactive)

Compound: Cc1nsc2nc(-c3cc(S(=O)(=O)N4CCCC4)ccc3Cl)oc(=O)c12
- inhibition: 65%

Compound: COc1cc2nc(-c3c(OC)cccc3OC)oc(=O)c2cc1OC
- inhibition: 0% (inactive)

Compound: Cc1ccc(-c2nc3sc(C)c(C)c3c(=O)o2)cc1
- inhibition: 0% (inactive)

Compound: O=C1CCC(=O)N1c1ccc(-c2nc3scc(-c4ccc(F)cc4)c3c(=O)o2)cc1
- inhibition: 0% (inactive)

Compound: Cc1ccc(-c2nc3scc(-c4ccc(Br)cc4)c3c(=O)o2)cc1
- inhibition: 0% (inactive)

Compound: CC(=O)Oc1ccc2nc(-c3ccccc3)oc(=O)c2c1
- inhibition: 0% (inactive)

Compound: Cc1ccccc1-c1nc2scc(-c3cccs3)c2c(=O)o1
- inhibition: 15% (inactive)

Compound: Cc1nsc2nc(-c3cc(S(=O)(=O)N(C)Cc4ccccc4)ccc3Cl)oc(=O)c12
- inhibition: 30% (inactive)

Compound: CCN(CC)S(=O)(=O)c1ccc(Cl)c(-c2nc3snc(C)c3c(=O)o2)c1
- inhibition: 0% (inactive)

Compound: CCOc1cc2nc(-c3ccccc3SC)oc(=O)c2cc1OCC
- inhibition: 5% (inactive)

Compound: COc1ccc(-c2csc3nc(-c4ccccc4C)oc(=O)c23)cc1
- inhibition: 0% (inactive)

Compound: COCc1nsc2nc(-c3ccccc3Cl)oc(=O)c12
- inhibition: 0% (inactive)

Compound: Cc1nsc2nc(-c3cccnc3Cl)oc(=O)c12
- inhibition: 5% (inactive)

Compound: COc1ccc(-c2csc3nc(-c4cccc5ccccc45)oc(=O)c23)cc1OC
- inhibition: 5% (inactive)

Compound: CCc1nc2sc(-c3ccccc3)c(-c3ccccc3)c2c(=O)o1
- inhibition: 55% (inactive)

Compound: Cc1noc2nc(-c3ccccc3Cl)oc(=O)c12
- inhibition: 5% (inactive)

Compound: CCOc1ccc(-c2csc3nc(-c4ccccc4OC)oc(=O)c23)cc1
- inhibition: 35% (inactive)

Compound: COc1cc2nc(-c3ccccc3SC)oc(=O)c2cc1OC
- inhibition: 15% (inactive)

Compound: O=c1oc(-c2ccccc2F)nc2scc(-c3cccs3)c12
- inhibition: 80%

Compound: Cc1ccc(-c2csc3nc(-c4ccc(C(C)(C)C)cc4)oc(=O)c23)cc1
- inhibition: 5% (inactive)

Compound: O=c1oc(-c2ccc([N+](=O)[O-])cc2)nc2c1cnn2-c1ccccc1
- inhibition: 0% (inactive)

Compound: CCOc1ccc(-c2csc3nc(-c4ccc(F)cc4)oc(=O)c23)cc1
- inhibition: 0% (inactive)
